tested on: MOLM-13 cells; experiment: MOLM-13 Cell Proliferation Assay (indicator of DHODH inhibition); format: cell-based; conditions: Homo sapiens, 72 Hours of culture, CellTiter-Glo, no uridine
In short: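 Low-passage MOLM-13 cells (10^4/well) in RPMI 1640 + 10% FBS exposed to compound (0.5% DMSO final) for 72 h at 37 °C, 5% CO2. Viability read by CellTiter-Glo luminescence; growth reflects de novo pyrimidine synthesis dependent on DHODH.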

| Structure (SMILES) | IC50 [nM] |
| --- | --- |
| Cc1ccc(C2c3[nH]c4ccc(Cl)c(F)c4c3CCN2c2nc(C)cc(C#N)n2)cc1 (stereo not drawn) [Compound 110, 2-[6-chloro-5-fluoro-1-(4-methylphenyl)-1,3,4,9-tetrahydro-2H-pyrido[3,4-b]indol-2-yl]-6-methylpyrimidine-4-carbonitrile] | 2.8 |
| Cc1ccc(C2c3[nH]c4cc(F)c(Cl)cc4c3CCN2c2ncc(F)c(C)n2)cc1 (stereo not drawn) [Compound 123, 6-chloro-7-fluoro-2-(5-fluoro-4-methylpyrimidin-2-yl)-1-(4-methylphenyl)-2,3,4,9-tetrahydro-1H-pyrido[3,4-b]indole] | 12.1 |
| Fc1cnc(N2CCc3c([nH]c4cc(F)c(Cl)cc34)C2c2ccc(F)c(F)c2)nc1 (stereo not drawn) [Compound 37, 6-chloro-1-(3,4-difluorophenyl)-7-fluoro-2-(5-fluoropyrimidin-2-yl)-2,3,4,9-tetrahydro-1H-pyrido[3,4-b]indole] | 89.6 |
| Cc1nc(N2CCc3c([nH]c4ccc(Cl)c(F)c34)C2c2ccc(Cl)cc2)ncc1F (stereo not drawn) [Compound 70, 6-chloro-1-(4-chlorophenyl)-5-fluoro-2-(5-fluoro-4-methylpyrimidin-2-yl)-2,3,4,9-tetrahydro-1H-pyrido[3,4-b]indole] | 6.7 |
| Cc1ccc(C2c3[nH]c4cc(F)c(Cl)cc4c3CCN2c2ncc(C)cn2)cc1 (stereo not drawn) [Compound 134, 6-chloro-7-fluoro-1-(4-methylphenyl)-2-(5-methylpyrimidin-2-yl)-2,3,4,9-tetrahydro-1H-pyrido[3,4-b]indole] | 21.7 |
| N#Cc1ccc(C2c3[nH]c4cc(F)c(Cl)cc4c3CCN2c2ncc(F)cn2)cc1 (stereo not drawn) [Compound 32, 4-[6-chloro-7-fluoro-2-(5-fluoropyrimidin-2-yl)-2,3,4,9-tetrahydro-1H-pyrido[3,4-b]indol-1-yl]benzonitrile] | 49.2 |
| Fc1cnc(N2CCc3c([nH]c4cc(F)c(Cl)cc34)C2c2ccc(F)cc2F)nc1 (stereo not drawn) [Compound 12, 6-chloro-1-(2,4-difluorophenyl)-7-fluoro-2-(5-fluoropyrimidin-2-yl)-2,3,4,9-tetrahydro-1H-pyrido[3,4-b]indole] | 35.8 |
| Fc1cc2[nH]c3c(c2cc1Cl)CCN(c1nccc(C(F)(F)F)n1)C3c1ccc(C(F)(F)F)cc1 (stereo not drawn) [Compound 75, 6-chloro-7-fluoro-1-[4-(trifluoromethyl)phenyl]-2-[4-(trifluoromethyl)pyrimidin-2-yl]-2,3,4,9-tetrahydro-1H-pyrido[3,4-b]indole] | 12.5 |
| Cc1ccnc(N2CCc3c([nH]c4cc(F)c(Cl)cc34)C2c2ccc(C#N)cc2)n1 (stereo not drawn) [Compound 61, 4-[6-chloro-7-fluoro-2-(4-methylpyrimidin-2-yl)-2,3,4,9-tetrahydro-1H-pyrido[3,4-b]indol-1-yl]benzonitrile] | 35.2 |
| Cc1ccc(C2c3[nH]c4ccc(F)c(F)c4c3CCN2c2ncc(F)cn2)cc1 (stereo not drawn) [Compound 82, 5,6-difluoro-2-(5-fluoropyrimidin-2-yl)-1-(4-methylphenyl)-2,3,4,9-tetrahydro-1H-pyrido[3,4-b]indole] | 86.5 |
| Fc1cc2[nH]c3c(c2cc1Cl)CCN(c1ncc(Cl)cn1)C3c1cccc(F)c1F (stereo not drawn) [Compound 131, 6-chloro-2-(5-chloropyrimidin-2-yl)-1-(2,3-difluorophenyl)-7-fluoro-2,3,4,9-tetrahydro-1H-pyrido[3,4-b]indole] | 9.2 |
| Cc1ccc(C2c3[nH]c4cc(F)c(Cl)cc4c3CCN2c2ncc(F)c(C)n2)c(F)c1F (stereo not drawn) [Compound 125, 6-chloro-1-(2,3-difluoro-4-methylphenyl)-7-fluoro-2-(5-fluoro-4-methylpyrimidin-2-yl)-2,3,4,9-tetrahydro-1H-pyrido[3,4-b]indole] | 3.2 |
| Fc1c(Cl)ccc2[nH]c3c(c12)CCN(c1ncc(Cl)cn1)C3c1ccc(C(F)(F)F)cc1 (stereo not drawn) [Compound 62, 6-chloro-2-(5-chloropyrimidin-2-yl)-5-fluoro-1-[4-(trifluoromethyl)phenyl]-2,3,4,9-tetrahydro-1H-pyrido[3,4-b]indole] | 24.7 |

The remaining lines, values ahead:

| IC50 [nM] | Structure (SMILES) |
| --- | --- |
| 4.4 | C=Cc1ccc2[nH]c3c(c2c1)CCN(c1nccc(C(F)(F)F)n1)C3c1ccc(C)cc1 (stereo not drawn) [Compound 291, 6-ethenyl-1-(4-methylphenyl)-2-[4-(trifluoromethyl)pyrimidin-2-yl]-2,3,4,9-tetrahydro-1H-pyrido[3,4-b]indole] |
| 0.3 | Cc1ccc([C@H]2c3[nH]c4ccc(-n5nccn5)cc4c3CCN2c2nc(C(F)(F)F)nc(C(F)(F)F)n2)c(F)c1F [Compound 524, (1S)-2-[4,6-bis(trifluoromethyl)-1,3,5-triazin-2-yl]-1-(2,3-difluoro-4-methylphenyl)-6-(2H-1,2,3-triazol-2-yl)-2,3,4,9-tetrahydro-1H-pyrido[3,4-b]indole] |
| 15.2 | Cc1nc(C)nc(N2CCc3c([nH]c4ccc(Cl)cc34)C2c2ccc(Cl)cc2)n1 (stereo not drawn) [Compound 449, 6-chloro-1-(4-chlorophenyl)-2-(4,6-dimethyl-1,3,5-triazin-2-yl)-2,3,4,9-tetrahydro-1H-pyrido[3,4-b]indole] |
| 86.1 | Oc1cc2[nH]c3c(c2cc1Cl)CCN(c1nccc(C(F)(F)F)n1)C3c1ccc(Cl)cc1 (stereo not drawn) [Compound 250, 6-chloro-1-(4-chlorophenyl)-2-[4-(trifluoromethyl)pyrimidin-2-yl]-2,3,4,9-tetrahydro-1H-pyrido[3,4-b]indol-7-ol] |
| 1.9 | CN(C)c1ccc(C2c3[nH]c4ccc(Cl)c(F)c4c3CCN2c2nccc(C(F)(F)F)n2)c(F)n1 (stereo not drawn) [Compound 210, 5-{6-chloro-5-fluoro-2-[4-(trifluoromethyl)pyrimidin-2-yl]-2,3,4,9-tetrahydro-1H-pyrido[3,4-b]indol-1-yl}-6-fluoro-N,N-dimethylpyridin-2-amine] |
| 2.2 | Cc1ccc([C@H]2c3[nH]c4ccc(Cl)cc4c3CCN2c2ncc(F)c(C#N)n2)c(F)c1F [Compound 385, 2-[(1S)-6-chloro-1-(2,3-difluoro-4-methylphenyl)-1,3,4,9-tetrahydro-2H-pyrido[3,4-b]indol-2-yl]-5-fluoropyrimidine-4-carbonitrile] |
| 3.5 | Cc1ccc([C@H]2c3[nH]c4ccc(Cl)cc4c3CCN2c2nc(C#N)nc(C(F)(F)F)n2)c(F)c1F [Compound 390, 4-[(1S)-6-chloro-1-(2,3-difluoro-4-methylphenyl)-1,3,4,9-tetrahydro-2H-pyrido[3,4-b]indol-2-yl]-6-(trifluoromethyl)-1,3,5-triazine-2-carbonitrile] |
| 4.9 | Cc1ccc([C@H]2c3[nH]c4ccc(Cl)cc4c3CCN2c2ncc(F)c(C)n2)cc1 [Compound 394, (1S)-6-chloro-2-(5-fluoro-4-methylpyrimidin-2-yl)-1-(4-methylphenyl)-2,3,4,9-tetrahydro-1H-pyrido[3,4-b]indole] |
| 20 | Cc1ccc(C2c3[nH]c4ccc(Cl)cc4c3CCN2c2nccc(N(C)C)n2)c(F)c1F (stereo not drawn) [Compound 306, 2-[6-chloro-1-(2,3-difluoro-4-methylphenyl)-1,3,4,9-tetrahydro-2H-pyrido[3,4-b]indol-2-yl]-N,N-dimethylpyrimidin-4-amine] |
| 4.1 | OCCCCc1ccc(C2c3[nH]c4cc(F)c(Cl)cc4c3CCN2c2nccc(C(F)(F)F)n2)cc1 (stereo not drawn) [Compound 168, 4-(4-{6-chloro-7-fluoro-2-[4-(trifluoromethyl)pyrimidin-2-yl]-2,3,4,9-tetrahydro-1H-pyrido[3,4-b]indol-1-yl}phenyl)butan-1-ol] |
| 1.1 | N#Cc1cc(C(F)(F)F)nc(N2CCc3c([nH]c4ccc(Cl)cc34)[C@@H]2c2ccc(N3CCOCC3)nc2)n1 [Compound 433, 2-{(1S)-6-chloro-1-[6-(morpholin-4-yl)pyridin-3-yl]-1,3,4,9-tetrahydro-2H-pyrido[3,4-b]indol-2-yl}-6-(trifluoromethyl)pyrimidine-4-carbonitrile] |
| 11.2 | Cc1ccc([C@H]2c3[nH]c4ccc(Cl)cc4c3CCN2c2ncnc(C#N)n2)cc1 [Compound 399, 4-[(1S)-6-chloro-1-(4-methylphenyl)-1,3,4,9-tetrahydro-2H-pyrido[3,4-b]indol-2-yl]-1,3,5-triazine-2-carbonitrile] |
| 0.9 | Cc1ccc(C2c3[nH]c4cc(F)c(Cl)cc4c3CCN2c2nc(C(F)(F)F)cc(C(F)(F)F)n2)cc1 (stereo not drawn) [Compound 154, 2-[4,6-bis(trifluoromethyl)pyrimidin-2-yl]-6-chloro-7-fluoro-1-(4-methylphenyl)-2,3,4,9-tetrahydro-1H-pyrido[3,4-b]indole] |
| 0.8 | CN1CCN(c2ncc([C@H]3c4[nH]c5ccc(-n6nccn6)cc5c4CCN3c3nc(C(F)(F)F)cc(C(F)(F)F)n3)cn2)CC1 [Compound 500, (1S)-2-[4,6-bis(trifluoromethyl)pyrimidin-2-yl]-1-[2-(4-methylpiperazin-1-yl)pyrimidin-5-yl]-6-(2H-1,2,3-triazol-2-yl)-2,3,4,9-tetrahydro-1H-pyrido[3,4-b]indole] |
| 11.3 | Cc1ccc([C@@H]2c3[nH]c4ccc(Cl)cc4c3CCN2c2nccc(C(F)(F)F)n2)c(F)c1F [Compound 180, (1R)-6-chloro-1-(2,3-difluoro-4-methylphenyl)-2-[4-(trifluoromethyl)pyrimidin-2-yl]-2,3,4,9-tetrahydro-1H-pyrido[3,4-b]indole] |
| 4.8 | Cc1ccc(C2c3[nH]c4cc(F)c(Cl)cc4c3CCN2c2nc(C#N)cc(C#N)n2)c(F)c1F (stereo not drawn) [Compound 216, 2-[6-chloro-1-(2,3-difluoro-4-methylphenyl)-7-fluoro-1,3,4,9-tetrahydro-2H-pyrido[3,4-b]indol-2-yl]pyrimidine-4,6-dicarbonitrile] |
| 7.3 | C[C@@H]1CN(c2ncc([C@H]3c4[nH]c5ccc(Cl)cc5c4CCN3c3nc(C(F)(F)F)cc(C(F)(F)F)n3)cn2)C[C@H](C)N1 [Compound 503, (1S)-2-[4,6-bis(trifluoromethyl)pyrimidin-2-yl]-6-chloro-1-{2-[(3R,5S)-3,5-dimethylpiperazin-1-yl]pyrimidin-5-yl}-2,3,4,9-tetrahydro-1H-pyrido[3,4-b]indole] |
